Experimental data reported in US9856480B2, “Dnazyme for silencing the expression of EGFR” (DCB-USA LLC, priority 2013, dated 2018).
Strand notation (5' to 3'): a small letter for the sugar, then the base; units joined by * are phosphorothioate-linked, units joined directly phosphodiester-linked; [ ] holds rarer units or linkages, { } end groups; capitals alone tell only the bases. d = 2'-deoxy (DNA)

Test system: T790M EGFR mRNA
Experiment: Quantitative real-time PCR of EGFR mRNA knockdown
Format: cell-based, human
Settings: for T790M EGFR mRNA expression knocked down (quantitative real-time PCR): 100 nM, 48 h
Protocol: A549, CL1-5, H1975, or CL97 was seeded onto 6-well at 3×10^5 cells/well and cultured overnight. Then, cells were separately treated with 100 nM DzControl or DzT790M-1 with lipofectamine 2000 (Invitrogen). After 48 h, total mRNA were extracted from DNAzyme-treated cells by Mestrisol following manufacturer's protocol. cDNA were synthesized by using RT III kit with random hexamers as primers (Invitrogen). The PCR primers were synthesized by Genomics BioSci & Tech (Taipei, Taiwan). The sequences of PCR primers are listed as follows: […]
The parameters for PCR were: 95° C. for 10 min, then 25 cycles of PCR at 95° C. for 30 s, 60° C. for 30 s, and 72° C. for 60 s. 3% agarose gels were used for electrophoresis of PCR products. The intensity of bands were quantified by Image J. Quantitative RT-PCR was performed on 40 ng total mRNA with the LightCycler 480 system (Roche). The PCR mix contained 5 μl of 2× Probe Master mix, 100 nM of UPL probe (Roche Diagnostics, Penzberg, Germany), 200 nM of forward primer and reverse primer, 0.1 ul RNAseout (Invitrogen), and 0.025 ul RTIII enzyme (Invitrogen) in a total volume of 10 μl. PCR parameters were as follows: 50° C. for 40 min, then 45 cycles of PCR at 95° C. for 10 s, 60° C. for 10 s, and 72° C. for 2 s. Data were analyzed by LC480 software (Roche Diagnostics, Penzberg, Germany). The relative amount of EGFR mRNA was normalized to ACTB mRNA. The sequences of PCR primers are as follows: […]
To examine the allele selectivity of DzT790M-1, EGFR mRNA knockdown efficiency was detected in two cell lines harboring wild-type EGFR (A549, CL1-5) and two cell lines containing EGFR T790M mutation (H1975, CL97). A549, CL1-5, H1975, or CL97 was seeded onto 6-well at 3×10^5 cells/well and cultured overnight. Then, cells were separately treated with 100 nM DzControl or DzT790M-1 with lipofectamine 2000 (Invitrogen). After 48 h, total mRNA was extracted. […] DzT790M-1 knocked down 68.2% and 77.4% T790M EGFR mRNA expression in H1975 and CL97 cells respectively. In contrast, in A549 and CL1-5 cells, only 1.1% and 19.2% wild-type EGFR mRNA expression was affected.

“DzT790M-1: 10-23 DNAzyme against EGFR T790M mRNA, arms 10/4, phosphorothioate ends: AGCTGCATGAGGCTAGCTACAACGAGAGC (DNA dA*dGdCdTdGdCdAdTdGdAdGdGdCdTdAdGdCdTdAdCdAdAdCdGdAdGdAdG*dC; further chemistry not fully specified)” was tested, and the “T790M EGFR mRNA expression knocked down (quantitative real-time PCR)” value (CL97 cells) was 77.4%, the “T790M EGFR mRNA expression knocked down (quantitative real-time PCR)” value (H1975 cells) was 68.2% and the “increased knockdown efficiency toward T790M EGFR mRNA over wild-type counterpart” value (quantitative real-time PCR, H1975, CL97 vs A549, CL1-5) was “at least 3.5 fold”.
